Measurements reported in ChEMBL document CHEMBL1141178, “Identification of 4-substituted 1,2,3-triazoles as novel oxazolidinone antibacterial agents with reduced activity against monoamine oxidase A” (J Med Chem, 2005).
Values after ≈ are worked out from the molar mass of the structure shown.

Legend:
[1] = Minimum inhibitory concentration against Haemophilus influenzae ATCC 51907; type: functional
[2] = system: Staphylococcus aureus; test: Minimum inhibitory concentration against methicillin susceptible Staphylococcus aureus AP601055; type: functional
[3] = system: Streptococcus pneumoniae; test: Minimum inhibitory concentration against penicillin susceptible Streptococcus pneumoniae AP671401; type: functional
[4] = biological target: T1, Amine oxidase [flavin-containing] A (Homo sapiens, UniProt P21397); test: Binding affinity for human liver monoamine oxidase A
T1 sequence (P21397 whole entry): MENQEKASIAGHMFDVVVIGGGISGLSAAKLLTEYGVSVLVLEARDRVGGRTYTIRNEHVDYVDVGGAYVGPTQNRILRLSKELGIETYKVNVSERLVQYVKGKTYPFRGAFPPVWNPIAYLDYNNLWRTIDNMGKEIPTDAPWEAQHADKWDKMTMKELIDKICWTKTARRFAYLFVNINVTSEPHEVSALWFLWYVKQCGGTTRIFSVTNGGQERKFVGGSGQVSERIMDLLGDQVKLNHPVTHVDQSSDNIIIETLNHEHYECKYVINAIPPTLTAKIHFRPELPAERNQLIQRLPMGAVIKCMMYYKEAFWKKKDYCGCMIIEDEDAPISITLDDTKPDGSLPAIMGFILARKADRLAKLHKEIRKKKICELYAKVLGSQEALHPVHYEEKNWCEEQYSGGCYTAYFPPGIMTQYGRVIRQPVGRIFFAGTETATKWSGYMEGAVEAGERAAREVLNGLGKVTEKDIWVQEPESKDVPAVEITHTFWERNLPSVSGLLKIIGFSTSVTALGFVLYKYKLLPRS

| MIC [1] [µg/mL] | MIC [2] [µg/mL] | MIC [3] [µg/mL] | Ki [4] [µM] | Compound |
| --- | --- | --- | --- | --- |
| 32 (≈ 73.6 µM) | 8 (≈ 18.4 µM) | 4 (≈ 9.21 µM) | 102 | CC(C)c1cn(C[C@H]2CN(c3ccc(C4=CCS(=O)(=O)CC4)c(F)c3)C(=O)O2)nn1 |
| 8 (≈ 19 µM) | 4 (≈ 9.51 µM) | 2 (≈ 4.76 µM) | > 200 | CCc1cn(C[C@H]2CN(c3ccc(C4=CCS(=O)(=O)CC4)c(F)c3)C(=O)O2)nn1 |
| 64 (≈ 156 µM) | 32 (≈ 78 µM) | 8 (≈ 19.5 µM) | 1.6 | O=C1O[C@@H](Cn2nncc2F)CN1c1ccc(C2=CCS(=O)(=O)CC2)c(F)c1 |
| 1 (≈ 2.61 µM) | 1 (≈ 2.61 µM) | 0.25 (≈ 0.654 µM) | 5.9 | CC(=O)NC[C@H]1CN(c2ccc(C3=CCS(=O)(=O)CC3)c(F)c2)C(=O)O1 |
| > 64 | > 64 | > 64 | 3.5 | CC(C)(C)OC(=O)c1cn(C[C@H]2CN(c3ccc(C4=CCS(=O)(=O)CC4)c(F)c3)C(=O)O2)nn1 |
| 2 (≈ 4.92 µM) | 1 (≈ 2.46 µM) | 0.5 (≈ 1.23 µM) | 25 | Cc1cn(C[C@H]2CN(c3ccc(C4=CCS(=O)(=O)CC4)c(F)c3)C(=O)O2)nn1 |
| 1 (≈ 2.34 µM) | 1 (≈ 2.34 µM) | 0.25 (≈ 0.586 µM) | 3 | O=C1O[C@@H](Cn2cc(Cl)nn2)CN1c1ccc(C2=CCS(=O)(=O)CC2)c(F)c1 |
| 2 (≈ 4.24 µM) | 2 (≈ 4.24 µM) | 0.5 (≈ 1.06 µM) | 16 | O=C1O[C@@H](Cn2cc(Br)nn2)CN1c1ccc(C2=CCS(=O)(=O)CC2)c(F)c1 |
| > 64 | > 64 | 4 (≈ 6.94 µM) | > 100 | O=C1O[C@@H](Cn2cc(C=C(Br)Br)nn2)CN1c1ccc(C2=CCS(=O)(=O)CC2)c(F)c1 |
| 2 (≈ 4.64 µM) | 16 (≈ 37.1 µM) | 1 (≈ 2.32 µM) | > 200 | N#CCc1cn(C[C@H]2CN(c3ccc(C4=CCS(=O)(=O)CC4)c(F)c3)C(=O)O2)nn1 |
| > 64 | > 64 | 64 (≈ 157 µM) | 4.5 | Cc1cnnn1C[C@H]1CN(c2ccc(C3=CCS(=O)(=O)CC3)c(F)c2)C(=O)O1 |
| 16 (≈ 38.1 µM) | 16 (≈ 38.1 µM) | 2 (≈ 4.76 µM) | 3.2 | O=Cc1cn(C[C@H]2CN(c3ccc(C4=CCS(=O)(=O)CC4)c(F)c3)C(=O)O2)nn1 |
| 4 (≈ 9.47 µM) | 32 (≈ 75.8 µM) | 2 (≈ 4.73 µM) | 47 | O=C1O[C@@H](Cn2cc(CO)nn2)CN1c1ccc(C2=CCS(=O)(=O)CC2)c(F)c1 |
| 2 (≈ 4.8 µM) | 2 (≈ 4.8 µM) | 0.5 (≈ 1.2 µM) | > 200 | C#Cc1cn(C[C@H]2CN(c3ccc(C4=CCS(=O)(=O)CC4)c(F)c3)C(=O)O2)nn1 |
| > 64 | > 64 | 1 (≈ 2.05 µM) | > 200 | C[Si](C)(C)C#Cc1cn(C[C@H]2CN(c3ccc(C4=CCS(=O)(=O)CC4)c(F)c3)C(=O)O2)nn1 |
| 8 (≈ 16.1 µM) | 8 (≈ 16.1 µM) | 2 (≈ 4.02 µM) | > 200 | O=C1O[C@@H](Cn2cc(/C=C/Br)nn2)CN1c1ccc(C2=CCS(=O)(=O)CC2)c(F)c1 |
| 2 (≈ 5.1 µM) | 1 (≈ 2.55 µM) | 0.5 (≈ 1.27 µM) | 3.4 | O=C1O[C@@H](Cn2ccnn2)CN1c1ccc(C2=CCS(=O)(=O)CC2)c(F)c1 |
| 2 (≈ 4.87 µM) | 1 (≈ 2.44 µM) | 0.25 (≈ 0.609 µM) | 0.5 | O=C1O[C@@H](Cn2cc(F)nn2)CN1c1ccc(C2=CCS(=O)(=O)CC2)c(F)c1 |

| Compound | MIC [1] [µg/mL] | MIC [2] [µg/mL] | MIC [3] [µg/mL] | Ki [4] [µM] |
| --- | --- | --- | --- | --- |
| O=C1O[C@@H](Cn2cc(COP(=O)(Oc3ccccc3)Oc3ccccc3)nn2)CN1c1ccc(C2=CCS(=O)(=O)CC2)c(F)c1 | 64 (≈ 97.8 µM) | 32 (≈ 48.9 µM) | 4 (≈ 6.11 µM) | > 100 |
